# Results: patent US11845770B2, “Ascaroside derivatives and methods of use” (California Institute of Technology, priority 2019, dated 2023)
# Tests used:
# [1] = Plasma protein binding, HT-Dialysis (human); assay type: in vitro ADME; conditions: pH 7.4, dialysis 4 hours, read-out: percent unbound
# Method: HT-Dialysis plate (Model HTD 96 b, Cat #1006) and the dialysis membrane (molecular weight cut off 12-14 KDa, Cat #1101) can be purchased from HT Dialysis LLC (Gales Ferry, CT).
# The plasma was thawed under running cold tap water and centrifuged at 3220×g for 5 min to remove any clots. The pH value was checked and recorded. Only plasma within range of pH 7.0 to pH 8.0 was used. The dialysis membrane was pretreated according to the manufacturer's instructions. Briefly, the dialysis membrane strips were soaked in ultra-pure water at room temperature for approximately 1 hr. After that, each membrane strip that contained 2 membranes was separated and soaked in ethanol:water (20:80 v:v) for approximately 20 min. The membrane was rinsed and soaked for 20 min in ultra-pure water.
# Aliquots of 50 μL loading plasma (matrix) containing compound 1 or warfarin in triplicate were transferred to the appropriate wells of a sample collection plate. The samples were matched with dialysis buffer to obtain a final volume of 100 μL with a volume ratio of plasma (matrix):dialysis buffer (1:1, v:v) in each well. […]
# The % Unbound, % Bound, % Recovery and % Remaining were calculated using the following equations: % Unbound=100×F/T % Bound=100−% Unbound % Recovery=100×(F+T)/T0 • F=the compound 1 concentration on the receiver side of the membrane/Correction Factor. […]
# CYP1A2 = target: T1, CYP1A2 (Homo sapiens, UniProt P05177); test: 5 in 1 CYP inhibition assay, CYP1A2; assay type: in vitro ADME; conditions: microsomes, probe phenacetin (O-deethylation), test compound 10 μM, n=2, read-out: inhibition of cytochrome P450 isoform 1A2
# T1 construct: from tissue
# T1 sequence (P05177 1-516): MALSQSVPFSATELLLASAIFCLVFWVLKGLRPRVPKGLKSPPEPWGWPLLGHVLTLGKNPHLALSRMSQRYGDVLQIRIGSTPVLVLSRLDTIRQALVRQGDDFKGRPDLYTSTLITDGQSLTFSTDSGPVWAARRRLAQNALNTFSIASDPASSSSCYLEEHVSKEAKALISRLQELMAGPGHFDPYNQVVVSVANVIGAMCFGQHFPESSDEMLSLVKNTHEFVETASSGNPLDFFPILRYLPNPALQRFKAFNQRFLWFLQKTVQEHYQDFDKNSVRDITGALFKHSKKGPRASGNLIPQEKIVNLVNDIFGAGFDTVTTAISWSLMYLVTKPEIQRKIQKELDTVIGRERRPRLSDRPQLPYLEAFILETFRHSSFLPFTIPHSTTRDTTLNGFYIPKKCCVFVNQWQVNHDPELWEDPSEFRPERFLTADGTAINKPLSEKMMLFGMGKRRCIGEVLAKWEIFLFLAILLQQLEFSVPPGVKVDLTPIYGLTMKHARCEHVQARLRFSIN
# Method: CYP450 dependent activities were determined using a marker substrate cocktail. For each reaction, enzyme activities in the presence and absence of test compound (10 μM) were measured in duplicate. A known inhibitor for each isoform, tested at a single concentration (3 μM, n=2), was included as positive control. Incubation mixtures containing microsomes, substrate, and standard inhibitor or test compound were warmed at 37° C. for 10 minutes. Reactions were initiated by addition of the NADPH and incubated for 10 min. [table] After incubation, ice cold acetonitrile was added to terminate the reaction. Generation of metabolites from the substrate reactions was determined by LC-MS/MS.
fraction unbound at 4 h [1],"inhibition at 10 min, 10 µM (CYP1A2)",SMILES
0.329,10.9%,"C[C@H](CC/C=C/C(=O)OC(C)(C)C)O[C@@H]1O[C@@H](C)[C@H](O)C[C@H]1O [Compound 1, tert-butyl (2E,6R)-6-{[(2R,3R,5R,6S)-3,5-dihydroxy-6-methyloxan-2-yl]oxy}hept-2-enoate]"
0.868,2.3%,"C[C@H](CC/C=C/C(=O)O)O[C@@H]1O[C@@H](C)[C@H](O)C[C@H]1O [ascr #7, reference compound]"
